Measured values as given in publication PMC7661526, “Antibiofilm effects of N,O-acetals derived from 2-amino-1,4-naphthoquinone are associated with downregulation of important global virulence regulators in methicillin-resistant Staphylococcus aureus” (Scientific Reports, 2020).
In brackets after ≈: the same amount, converted by molar mass.

Tests used:
[1] = test system: MRSA ST5-SCCmecIV (USA800); assay: Disk diffusion test; format: cell-based, Staphylococcus aureus
Cytotoxicity assay (MTT) = settings: African green monkey, Vero cell monolayers
Method: (§1) Plates were incubated for 1 h, the supernatant again removed, and 200 µL dimethyl sulfoxide (DMSO) were added to each well to dissolve the formazan crystals for 10 min. Absorbance was measured at 570 nm using an ELISA reader (Thermo Plate, TP-READER, Thermo Fisher Scientific). […] The selectivity index (SI) was calculated as follows: SI (µg/mL) = CC50/MIC[17]. Three independent experiments were performed in triplicate. Controls were performed using 2% (v/v) DMSO only.

in vitro = settings: human, pH 7.4
Method: (§2) Erythrocytes were collected from three human volunteers in a citrate tube and washed three times (3×) with PBS (pH 7.4). All derivatives were incubated with the PBS-erythrocyte suspension for 3 h at 37 °C. The hemolysis with the release of hemoglobin was quantified by the spectrophotometric reading of the supernatant at 545 nm. Hemolysis less than 10% represented hemocompatibility and non-toxicity against erythrocyte membranes. For the positive control, the human erythrocytes were lysed with 1% (v/v) Triton X-100. The negative control was performed with 1% (v/v) DMSO only (final concentration). […] All methods were carried out in accordance with relevant guidelines and regulations. In addition, informed consent was obtained from all volunteers. Three independent experiments were performed in triplicate.

fnbA = assay: Real-time RT-qPCR of biofilm-associated genes; format: cell-based, Staphylococcus aureus
sigB = assay: Real-time RT-qPCR of global regulators; format: cell-based, Staphylococcus aureus
atlA = assay: Autolytic system: atlA real-time qRT-PCR; format: cell-based, Staphylococcus aureus
MRSA strain BMB9393 = assay: Autolytic system: extracellular DNA (eDNA) in supernatant; format: cell-based, Staphylococcus aureus; settings: 1/4MIC, 7b stated relative to 7c
[2] = test system: MRSA strain CR15-071 (USA100) cells persistent to vancomycin; assay: Vancomycin-persistent cells, high bacterial load on TSA plates; format: cell-based, Staphylococcus aureus; settings: 1MIC derivative (128 µg/mL) plus vancomycin 4MIC (8 µg/mL), ~10^9 CFU/ml
Method: For this test, we choose the MRSA strain CR15-071 representative of the ST5-SCCmecII lineage (NY/Japan-USA100 clone), since this MRSA has replaced the ST239-SCCmecIII (the Brazilian clone) in this country, and is now the most frequent MRSA lineage in Brazilian hospitals. […]. The plates were incubated at 37 °C/24 h before being examined. […]. Bacterial growth was determined by removing persistent cells from the plates and determining UFC/ml. Controls were also performed using 2% (v/v) DMSO only. Three independent experiments were performed in triplicate.

Vero cell line = assay: Cytotoxicity assay (MTT); settings: Vero cells, 24 h, MTT
Method: as §1

human erythrocytes = assay: Hemocompatibility assay; settings: highest concentration evaluated (300 µg/mL), 3 h at 37 °C
Method: as §2

Row | Structure (SMILES) | Inhibition zone [1] [mm] | CC50 at 24 h (Cytotoxicity assay (MTT)) [µg/mL] | hemolysis at 3 h, 300 µg/mL (in vitro) [%] | Reduction of fnbA expression (fnbA) | Increase of sigB transcripts (sigB) | Increase in atlA transcripts (atlA) | Amount of eDNA in bacterial supernatant (cell lysis) (MRSA strain BMB9393) | Reduction in the total of vancomycin-persistent cells [2] | CC50 (Vero cell line) [µg/mL] | Hemolysis, maximum values (human erythrocytes) [%]
1 | CCOCNC1=CC(=O)c2ccccc2C1=O [7b, 2-(ethoxymethyl)-amino-1,4-naphthoquinone] | 13±0.5 | 219.9 ± 1.87 (≈ 951 µM) | 2.7 ± 0.3 | 89.3% ± 1.5% | did not affect | 3.5 times | even higher (about two-fold) | complete inhibition of persistent cells | – | –
2 | C#CCOCNC1=CC(=O)c2ccccc2C1=O [7c, 2-(propynyloxymethyl)-amino-1,4-naphthoquinone] | 13±1.0 | – | – | 24.64% ± 3.5% | 57.22 ± 5.2% | three-fold increase | increased | – | 20.15 ± 2.11 (≈ 83.5 µM) | 1.5 ± 0.5
